# Experimental data taken from US20230165841A1, “PREVENTION AND INTERVENTION OF INFARCT EXPANSION FOLLOWING HEMORRHAGIC INFARCTIONS” (CEDARS-SINAI MEDICAL CENTER, priority 2020, published 2023).
# Entries after “also recorded” stand apart in the source; their conditions may differ.
# B1: hemopexin (protein, UniProt P02790 24-462, looked up)
# Hemopexin: TPLPPTSAHGNVAEGETKPDPDVTERCSDGWSFDATTLDDNGTMLFFKGEFVWKSHKWDRELISERWKNFPSPVDAAFRQGHNSVFLIKGDKVWVYPPEKKEKGYPKLLQDEFPGIPSPLDAAVECHRGECQAEGVLFFQGDREWFWDLATGTMKERSWPAVGNCSSALRWLGRYYCFQGNQFLRFDPVRGEVPPRYPRDVRDYFMPCPGRGHGHRNGTGHGNSTHHGPEYMRCSPHLVLSALTSDNHGATYAFSGTHYWRLDTSRDGWHSWPIAHQWPQGPSAVDAAFSWEEKLYLVQGTQVYVFLTKGGYTLVSGYPKRLEKEVGTPHGIILDSVDAAFICPGSSRLHIMAGRRLWWLDLKSGAQATWTELPWPHEKVDGALCMEKSLGPNSCSANGPGLYLIHGPNLYCYSDVEKLNAAKALPQPQNVTSLLGCTH
# notes: a known scavenger of heme
# What was measured:
# [1] = tested on: mice with reperfused MI; conditions: pre-treating prior to ischemia; cited from earlier work
# [2] = cited from earlier work
# [3] = tested on: cardiomyocyte culture; assay: Total ROS in cardiomyocyte culture treated with Hx, DFP, hemin; format: cell-based; conditions: compared to controls; FIG. 16 axis μM/mg protein/min
# Excerpt: FIG. 16 is a bar graph depicting the total ROS production (μM/mg protein/min) in cardiomyocyte culture treated with different agents or control, indicating the importance of physiochemical state of degradation products of hemorrhage being the therapeutic targets.
# Physiochemical features of degradation products of hemorrhage are important for determining optimal therapy. An early byproduct of hemorrhage is extracellular heme (an Fe^2+ complex), which is eventually internalized by cardiomyocytes. Applicant tested whether pretreating cardiomyocytes in culture with hemopexin (Hx), a heme scavenger, can rescue the cells from oxidative stress compared to an intracellular Fe^3+ chelator deferiprone (DFP). Methods: Studies were performed in an cardiomyocyte culture. Total ROS following treatment with Hx, DFP, hemin, hemin+Hx, hemin+DFP were measured. […] Summary: Location of hemorrhagic byproducts (intra- vs. extra-cellular) and oxidation state are critical features that need to be accounted for in the development of therapies against hMI. To develop an optimal ICT strategy against hMI we will identify the physiochemical features of hemorrhagic byproducts in rats with hMI sacrificed at different time points.
# [4] = tested on: dogs with reperfused hemorrhagic MI; assay: Deferiprone interventional arm in canine model of hemorrhagic MI (serial CMR); format: in vivo, dog
# [5] = tested on: rats subjected to hMIs (90-min I/R); conditions: for LVEF: echocardiography, EDTA 40 mg/kg/day oral gavage upon reperfusion, followed 4 weeks, PBS 30±4%; for Adverse LV remodeling / cardioprotection: rats with hMI, post reperfusion treatment
# [6] = tested on: post MI patients; conditions: 6 months of EDTA therapy starting 6-weeks post MI; cited from earlier work
# [7] = tested on: rats with 90-min I/R (hMI); assay: Hemopexin treatment of rats with 90-min I/R (hMI); format: in vivo, rat
# Excerpt: FIGS. 12A and 12B depict the therapeutic benefits of hemopexin (Hx). […] Note the ventricular dilation in rats treated with PBS (not evident Hx treated rates). Long- and shor-axis (along dotted lines) views are shown.
# Background: Hemopexin (Hx), a known scavenger of heme, and a key byproduct of hemorrhage. Applicant tested whether treating rats with 90-min I/R (known to yield hMI) with Hx could reduce oxidative stress in the acute phase and improve LV remodeling in the chronic phase. Methods: Rats (n=12) underwent 90-min I/R: 50% of the animals were treated with Hx (700 μg, i.p. immediately and 2 days post reperfusion) and the rest were treated with PBS. LV function was determined with echo. Half of each group was sacrificed at 24-hrs and the rest were sacrificed at 1-month post MI. […] LVEF were: 51±4% (Hx+) vs 32±5% (control), p<0.05. Summary: Heme-specific scavenger, Hx, can attenuate the adverse effects of hMI.
# [8] = DFP 100 mg/kg/day oral gavage from 3 days post reperfusion
# [9] = vs EDTA-treated or placebo controls
molecule,measurement,setting,value
"c1ccc(-c2ccccn2)nc1 [BPD, 2,2-bipyridl]",Mitochondrial iron and reperfusion injury,[1],could reduce
"CC(=O)N(O)CCCCCNC(=O)CCC(=O)N(O)CCCCCNC(=O)CCC(=O)N(O)CCCCCN [DFO, deferoxamine]",Lipid solubility (note in Location column),[2],(lipid insoluble)
"Cc1c(O)c(=O)ccn1C [DFP, Deferiprone]","Total ROS, agent alone",[3],did not increase
same,"Relative PDFF in the MI zones, change between D3 and Wk8",[4]; DFP+/IMH+ group,did not show an increase
same,LVEF,"[4]; DFP+/IMH+ group by M6, p<0.03",over 40%
same,"Remote wall thickness, change over the 6-month period","[4]; DFP+/IMH+ group, diastolic",decreased
same,Magnitude of peak circumferential strain (Peak εc) vs DFP−/IMH+ group,"[4]; Wk8 to M6 and D3 to M6, p<0.05",significant greater
same,Fat infiltration within the MI zones vs DFP−/IMH+ group,[4]; at M6,significantly lower
same,"Infarct wall thickness, treated group compared to untreated group","[4]; at M6, p<0.05",+34%
same,"Infarct-to-remote wall thickness (I:RWT), DFP+/IMH+ vs DFP−/IMH+","[4]; at M6, p<0.05",+67%
same,"Remote wall thickness, DFP−/IMH+ group compared to DFP+/IMH+ group","[4]; at M6, untreated larger, p<0.05",+28%
same,"LVEF, DFP+/IMH+ group vs DFP−/IMH+ group","[4]; at Month 6, p<0.005",+36%
same,Fat content based on PDFF (normalized to D3) vs untreated group,[4]; at Wk8 and M6,marked reduction
same,End-systolic volume (ESV) vs DFP−/IMH+ group,"[4]; at both Wk8 and Mo6, p<0.05",lower
same,Fat content within MI zone vs untreated control group,[4]; at the end of the treatment period (Wk8),decreased precipitously
same,Safety of delayed treatment,[5]; [8],safe
same,Iron and proinflammatory markers in the scarred myocardium,"[5]; IL-1β, TNF-α, MMP9, vs EDTA-treated or placebo controls",reduced
same,Iron in MI zones,"[5]; T2*-CMR / Prussian Blue, vs EDTA-treated or placebo controls",little to no iron; also recorded: much lower
same,LVEF,[5]; [8],42±4%
same,Adverse LV remodeling / cardioprotection,[5],marked reduction
same,LV dilatation,[5]; [9],reduced
same,Wall thickness (infarcted and remote),[5]; [9],thicker
"O=C(O)CN(CCN(CC(=O)O)CC(=O)O)CC(=O)O [EDTA, ethylenediaminetetraacetic acid]",LVEF,[5]; [8],32±3%
same,Adverse LV remodeling / cardioprotection,[5],did not decrease; also recorded: does not provide cardioprotection
same,Stability of ferric-EDTA complex,[2]; can be transformed to ferrous-EDTA in vivo,unstable
same,MACE,[6],did not decrease
hemin,"Total ROS, agent alone",[3],markedly increased
B1,LV remodeling,"[7]; 1-month post reperfusion, vs PBS-treated group",better
same,Total ROS (production within MI),"[7]; 24 hrs post reperfusion, Hx 700 μg i.p. immediately and 2 days post reperfusion, vs PBS control",significantly lower
same,LVEF,"[7]; echo, Hx 700 μg i.p. immediately and 2 days post reperfusion, control 32±5%, p<0.05",51±4%
same,"Total ROS, agent alone",[3],did not increase
